Structures are written as SMILES.

One assay has as its target KRas G12V (Homo sapiens, UniProt P01116, G12V). Description: biochemical.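 Further: KRas binding measured by TR-FRET displacement at room temperature, IC50 fitted from percent of control values.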
For another assay, the system named is pERK in H727 cells. Description: Inhibition of KRas phosphorylation of ERK (Cisbio HTRF pERK assay). As to conditions: Homo sapiens, NCI-H727, read-out: Inhibition (HTRF IC50) of KRas-mediated Phosphorylation of ERK, H727.
The next assay concerns pERK in ASPC1 cells. The description is as above. To be noted: Homo sapiens, ASPC1, read-out: Inhibition (HTRF IC50) of KRas-mediated Phosphorylation of ERK, AsPC-1.
A further assay concerns the target KRas G12D (Homo sapiens, UniProt P01116, G12D). Description: biochemical.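 Further: TR-FRET displacement binding assay on KRas, read after a one-hour incubation at room temperature, IC50 fitted from percent-of-control values.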
The subject of a further assay is pERK in MKN1 cells. Description: Inhibition of KRas phosphorylation of ERK (Cisbio HTRF pERK assay). As to conditions: Homo sapiens, MKN-1, 3 h, read-out: Inhibition (HTRF IC50) of KRas-mediated Phosphorylation of ERK, MKN1.
In another assay the test system is pERK in PSN1 cells. The assay is described as above. As to conditions: Homo sapiens, PSN1, 3 h, read-out: Inhibition (HTRF IC50) of KRas-mediated Phosphorylation of ERK, PSN1.
A further assay has as its target KRas G12R (Homo sapiens, UniProt P01116, G12R). Description: biochemical.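 Further: TR-FRET displacement assay of compound binding to KRas, read after one hour at room temperature, potency from a four-parameter fit of percent-of-control values.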

Chain of KRas G12D (P01116 1-169 isoform P01116-2 G12D): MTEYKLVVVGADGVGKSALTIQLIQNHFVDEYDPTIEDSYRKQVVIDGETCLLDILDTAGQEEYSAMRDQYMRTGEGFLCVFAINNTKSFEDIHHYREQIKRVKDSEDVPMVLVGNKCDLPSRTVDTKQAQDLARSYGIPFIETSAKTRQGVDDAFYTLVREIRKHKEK
Chain of KRas G12R (P01116 1-169 isoform P01116-2 G12R): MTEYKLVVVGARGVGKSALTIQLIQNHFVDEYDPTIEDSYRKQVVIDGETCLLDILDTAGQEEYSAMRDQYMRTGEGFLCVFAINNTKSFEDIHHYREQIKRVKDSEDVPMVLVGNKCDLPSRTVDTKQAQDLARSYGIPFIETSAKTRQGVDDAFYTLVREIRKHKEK
Chain of KRas G12V (P01116 1-169 isoform P01116-2 G12V): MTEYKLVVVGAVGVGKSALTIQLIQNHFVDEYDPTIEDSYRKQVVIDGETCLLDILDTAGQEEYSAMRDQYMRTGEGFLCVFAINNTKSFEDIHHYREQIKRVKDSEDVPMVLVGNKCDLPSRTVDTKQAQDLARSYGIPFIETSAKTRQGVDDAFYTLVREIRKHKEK

For the molecule `CCc1c(F)ccc2cc(O)cc(-c3ncc4c(N5CCCC6(CC(F)C6)C5)nc(OC[C@@]56CCCN5C[C@H](F)C6)nc4c3F)c12` (stereo partly drawn) [Example 344, 5-ethyl-6-fluoro-4-(8-fluoro-4-(2-fluoro-6-azaspiro[3.5]nonan-6-yl)-2-(((2R,7aS)-2-fluorohexahydro-1H-pyrrolizin-7a-yl)methoxy)pyrido[4,3-d]pyrimidin-7-yl)naphthalen-2-ol], the half-maximal inhibitory concentration (IC50) was 83 nM at KRas G12V; 4820 nM in the assay with pERK in H727 cells; 3410 nM in the assay with pERK in ASPC1 cells; 138 nM on KRas G12D; 796 nM in the assay with pERK in MKN1 cells; at least 10000 nM in the assay with pERK in PSN1 cells. For the same molecule, the IC50 against KRas G12R is 94 nM.
Take `CCc1c(F)ccc2cc(O)cc(-c3ncc4c(N5CCCC(NS(N)(=O)=O)C5)nc(OC[C@@]56CCCN5C[C@H](F)C6)nc4c3F)c12` (stereo partly drawn) [Example 352, 7-(8-ethyl-7-fluoro-3-hydroxy-1-naphthyl)-8-fluoro-2-(((2R,7aS)-2-fluorohexahydro-1H-pyrrolizin-7a-yl)methoxy)-4-[3-(sulfamoylamino)-1-piperidyl]pyrido[4,3-d]pyrimidine]: the IC50 is at most 2 nM against KRas G12V; 1270 nM in the assay with pERK in H727 cells; 948 nM with pERK in ASPC1 cells; at most 2 nM at KRas G12D; 46 nM in the assay with pERK in MKN1 cells; at least 10000 nM in the assay on pERK in PSN1 cells. The molecule further gave an IC50 against KRas G12R of at most 2 nM.
Take `CCc1c(F)ccc2cc(O)cc(-c3ncc4c(N5C[C@@H]6C(=O)NNC(=O)[C@@H]6C5)nc(OC[C@@]56CCCN5C[C@H](F)C6)nc4c3F)c12` [Example 363, (4aR,7aS)-6-(7-(8-ethyl-7-fluoro-3-hydroxynaphthalen-1-yl)-8-fluoro-2-(((2R,7aS)-2-fluorotetrahydro-1H-pyrrolizin-7a(5H)-yl)methoxy)pyrido[4,3-d]pyrimidin-4-yl)hexahydro-1H-pyrrolo[3,4-d]pyridazine-1,4(4aH)-dione]: the IC50 on KRas G12V was 57 nM; with pERK in H727 cells, at least 10000 nM; with pERK in ASPC1 cells, at least 10000 nM; at KRas G12D, 201 nM; in the assay with pERK in MKN1 cells, at least 10000 nM; in the assay with pERK in PSN1 cells, at least 10000 nM. In addition, it took 10 nM to reach half-maximal inhibition on KRas G12R (IC50).
`CCc1c(F)ccc2cc(O)cc(-c3ncc4c(NCC5CCNC5=O)nc(OC[C@@]56CCCN5C[C@H](F)C6)nc4c3F)c12` (stereo partly drawn) [Example 368, 3-(((7-(8-ethyl-7-fluoro-3-hydroxynaphthalen-1-yl)-8-fluoro-2-(((2R,7aS)-2-fluorotetrahydro-1H-pyrrolizin-7a(5H)-yl)methoxy)pyrido[4,3-d]pyrimidin-4-yl)amino)methyl)pyrrolidin-2-one]: the IC50 was 24 nM against KRas G12V; 617 nM in the assay on pERK in H727 cells; 4680 nM with pERK in ASPC1 cells; 4 nM against KRas G12D; 191 nM in the assay on pERK in MKN1 cells; at least 10000 nM with pERK in PSN1 cells. Further, at KRas G12R, 11 nM corresponded to half-maximal inhibition (IC50).
Turning to `CCc1c(F)ccc2cc(O)cc(-c3ncc4c(NCC5NC(=O)NC5=O)nc(OC[C@@]56CCCN5C[C@H](F)C6)nc4c3F)c12` (stereo partly drawn) [Example 369, 5-(((7-(8-ethyl-7-fluoro-3-hydroxynaphthalen-1-yl)-8-fluoro-2-(((2R,7aS)-2-fluorohexahydro-1H-pyrrolizin-7a-yl)methoxy)pyrido[4,3-d]pyrimidin-4-yl)amino)methyl)imidazolidine-2,4-dione], the IC50 at KRas G12V is 3 nM; with pERK in H727 cells, 471 nM; in the assay with pERK in ASPC1 cells it was 1340 nM; at KRas G12D, 5 nM; with pERK in MKN1 cells it was 294 nM; in the assay on pERK in PSN1 cells it was at least 10000 nM. On KRas G12R, this molecule showed an IC50 of 4 nM.
On to `CCc1c(F)ccc2cc(O)cc(-c3ncc4c(NCC5CNC(=O)N5)nc(OC[C@@]56CCCN5C[C@H](F)C6)nc4c3F)c12` (stereo partly drawn) [Example 370, 4-(((7-(8-ethyl-7-fluoro-3-hydroxynaphthalen-1-yl)-8-fluoro-2-(((2R,7aS)-2-fluorohexahydro-1H-pyrrolizin-7a-yl)methoxy)pyrido[4,3-d]pyrimidin-4-yl)amino)methyl)imidazolidin-2-one], for which the IC50 was at most 2 nM against KRas G12V; 516 nM in the assay on pERK in H727 cells; 2980 nM in the assay on pERK in ASPC1 cells; 11 nM on KRas G12D; 330 nM in the assay with pERK in MKN1 cells; at least 10000 nM in the assay on pERK in PSN1 cells. This molecule registered an IC50 at KRas G12R of 5 nM.
With `CCc1c(F)ccc2cc(O)cc(-c3ncc4c(NCCC5CCC(=O)N5)nc(OC[C@@]56CCCN5C[C@H](F)C6)nc4c3F)c12` (stereo partly drawn) [Example 377, 5-(2-((7-(8-ethyl-7-fluoro-3-hydroxynaphthalen-1-yl)-8-fluoro-2-(((2R,7aS)-2-fluorotetrahydro-1H-pyrrolizin-7a(5H)-yl)methoxy)pyrido[4,3-d]pyrimidin-4-yl)amino)ethyl)pyrrolidin-2-one], the IC50 at KRas G12V was 3 nM; in the assay with pERK in H727 cells, 7780 nM; with pERK in ASPC1 cells, at least 10000 nM; on KRas G12D it was at most 2 nM; in the assay with pERK in MKN1 cells it was 2300 nM; in the assay with pERK in PSN1 cells, at least 10000 nM. The same molecule had an IC50 against KRas G12R of 12 nM.
For `CCc1c(F)ccc2cc(O)cc(-c3ncc4c(NCCC5CNC(=O)N5)nc(OC[C@@]56CCCN5C[C@H](F)C6)nc4c3F)c12` (stereo partly drawn) [Example 382, 4-(2-((7-(8-ethyl-7-fluoro-3-hydroxynaphthalen-1-yl)-8-fluoro-2-(((2R,7aS)-2-fluorohexahydro-1H-pyrrolizin-7a-yl)methoxy)pyrido[4,3-d]pyrimidin-4-yl)amino)ethyl) imidazolidin-2-one], the IC50 is at most 2 nM at KRas G12V; 5900 nM with pERK in H727 cells; at least 10000 nM with pERK in ASPC1 cells; 9 nM against KRas G12D; 781 nM in the assay on pERK in MKN1 cells; at least 10000 nM with pERK in PSN1 cells. The IC50 on KRas G12R is 3 nM.
`CCc1c(F)ccc2cc(O)cc(-c3ncc4c(NCc5cc(C(N)=O)nn5C)nc(OC[C@@]56CCCN5C[C@H](F)C6)nc4c3F)c12` [Example 385, 5-(((7-(8-ethyl-7-fluoro-3-hydroxynaphthalen-1-yl)-8-fluoro-2-(((2R,7aS)-2-fluorohexahydro-1H-pyrrolizin-7a-yl)methoxy)pyrido[4,3-d]pyrimidin-4-yl)amino)methyl)-1-methyl-1H-pyrazole-3-carboxamide]: the IC50 is at most 2 nM against KRas G12V; 4650 nM in the assay with pERK in H727 cells; at least 10000 nM in the assay on pERK in ASPC1 cells; at most 2 nM against KRas G12D; 421 nM with pERK in MKN1 cells; at least 10000 nM with pERK in PSN1 cells. Further, on KRas G12R, the IC50 is at most 2 nM.
For the molecule `C#Cc1c(F)ccc2cc(O)cc(-c3ncc4c(N5CCCC6(CNC(=O)N6)C5)nc(OC[C@@]56CCCN5C[C@H](F)C6)nc4c3F)c12` (stereo partly drawn) [Example 395, 7-(7-(8-ethynyl-7-fluoro-3-hydroxynaphthalen-1-yl)-8-fluoro-2-(((2R,7aS)-2-fluorohexahydro-1H-pyrrolizin-7a-yl)methoxy)pyrido[4,3-d]pyrimidin-4-yl)-1,3,7-triazaspiro[4.5]decan-2-one], the IC50 is at most 2 nM against KRas G12V; 1380 nM with pERK in H727 cells; 477 nM with pERK in ASPC1 cells; at most 2 nM against KRas G12D; 299 nM in the assay on pERK in MKN1 cells; at least 10000 nM in the assay on pERK in PSN1 cells. In addition, the IC50 against KRas G12R is at most 2 nM.
On to `C#Cc1c(F)ccc2cc(O)cc(-c3ncc4c(N5CCCC6(CNS(=O)(=O)N6)C5)nc(OC[C@@]56CCCN5C[C@H](F)C6)nc4c3F)c12` (stereo partly drawn) [Example 396, 7-(7-(8-ethynyl-7-fluoro-3-hydroxynaphthalen-1-yl)-8-fluoro-2-(((2R,7aS)-2-fluorohexahydro-1H-pyrrolizin-7a-yl)methoxy)pyrido[4,3-d]pyrimidin-4-yl)-2-thia-1,3,7-triazaspiro[4.5]decane 2,2-dioxide], for which the IC50 is 3 nM against KRas G12V; 7480 nM in the assay with pERK in H727 cells; 3080 nM with pERK in ASPC1 cells; at most 2 nM against KRas G12D; 525 nM in the assay on pERK in MKN1 cells; at least 10000 nM with pERK in PSN1 cells. Also, on KRas G12R, half-maximal inhibition (IC50) required 3 nM.
Regarding `O=C1NCC12CCCN(c1nc(OC[C@@]34CCCN3C[C@H](F)C4)nc3c(F)c(-c4cc(O)cc5ccc(F)c(Br)c45)ncc13)C2` (stereo partly drawn) [Example 406, 6-(7-(8-bromo-7-fluoro-3-hydroxynaphthalen-1-yl)-8-fluoro-2-(((2R,7aS)-2-fluorohexahydro-1H-pyrrolizin-7a-yl)methoxy)pyrido[4,3-d]pyrimidin-4-yl)-2,6-diazaspiro[3.5]nonan-1-one], the IC50 against KRas G12V is 5 nM; in the assay with pERK in H727 cells it was 748 nM; with pERK in ASPC1 cells, 880 nM; on KRas G12D it was 4 nM; in the assay on pERK in MKN1 cells, 306 nM; with pERK in PSN1 cells, at least 10000 nM. For the same molecule, inhibition against KRas G12R was half-maximal at 11 nM (IC50).
As to `Nc1cc2n(n1)CCCN(c1nc(OC[C@@]34CCCN3C[C@H](F)C4)nc3c(F)c(-c4cc(O)cc5ccc(F)c(Br)c45)ncc13)C2` [Example 408, 4-(4-(2-amino-7,8-dihydro-4H-pyrazolo[1,5-a][1,4]diazepin-5(6H)-yl)-8-fluoro-2-(((2R,7aS)-2-fluorohexahydro-1H-pyrrolizin-7a-yl)methoxy)pyrido[4,3-d]pyrimidin-7-yl)-5-bromo-6-fluoronaphthalen-2-ol], the IC50 at KRas G12V was at most 2 nM; in the assay with pERK in H727 cells it was 570 nM; in the assay on pERK in ASPC1 cells, 721 nM; against KRas G12D, at most 2 nM; in the assay on pERK in MKN1 cells, 351 nM; with pERK in PSN1 cells, at least 10000 nM. Moreover, at KRas G12R, the IC50 is at most 2 nM.

These data come from patent US12398154B2, “Azaquinazoline pan-KRas inhibitors” (Mirati Therapeutics, Inc., priority 2020, dated 2025).
